# Data: patent US11447503B2, “Pyridine carbamates and their use as GLUN2B receptor modulators” (JANSSEN PHARMACEUTICA NV, priority 2019, dated 2022)
# Assays:
# [1] = biological target: human GluN1/GluN2B NMDA receptors (Homo sapiens, UniProt Q05586+Q13224); experiment: Cell-based calcium flux (FLIPR) assay on cloned human GluN1/GluN2B ion channels expressed in mammalian cells; conditions: standard assay; glutamate ~EC40, 10 μM glycine; stable Tet-On cell line
# Summary of the method: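 Tet-On-induced stable cells expressing human GluN1/GluN2B, Calcium 5 dye. Compounds preincubated 5 min (agonist check), then glutamate at ~EC40 plus 10 μM glycine added for 5 min; Mg2+ and buffer composition differ between standard and HTS formats. FLIPR Tetra fluorescence normalised to control wells; (+)MK-801 as antagonist control.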
# [2] = Liver microsomal stability assay (extraction ratio); assay type: in vitro ADME; conditions: test compound 1 μM; 0.5 mg/mL liver microsomes, NADPH, 37° C.; species not stated (method: mouse, rat, and human)
# Description: 5.4. Liver Microsomal Stability Assay (Extraction Ratio)
# Microsomal stability studies (see, Chrovian et al, “H-Pyrrolo[3,2-b]pyridine GluN2B-Selective Negative Allosteric Modulators”. ACS Med Chem Lett. 2019 Jan. 10; 10(3):261-266) were conducted on a Biomek® FX Robotic Liquid Handling Workstation (Beckman Coulter, Brea, Calif.), which consists of a 96-channel pipette head, a 12-position workstation deck, and a plate incubator. Test compounds (1 μM) were spiked in a reaction mix consisting of 100 mM potassium phosphate buffer (pH 7.4), 3 mM MgCl2, and 0.5 mg/mL liver microsomes from mouse, rat, and human (BD Gentest). The reaction was brought to 37° C. and initiated by adding NADPH to a final concentration of 1 mM. After mixing on the platedeck, 50 μL aliquots were excised from the reaction plate at 0, 5, 10, 20, 40, and 60 min and quenched with four volumes of acetonitrile spiked with […] of the internal standard phenytoin. Quenched plates were centrifuged at 5700 rpm for 10 min at 4° C., and supernatant was diluted 1:3 in water before LC/MS/MS analysis. The compound half-lives were derived from plots of the In of percent remaining compound over time to determine the intrinsic clearance. The predicted hepatic clearance was derived from the intrinsic clearance value using equations from the well-stirred model (Current Drug Metabolism, 2008, 9, 940-951), where no correction was made plasma protein binding and the blood to plasma concentration ratio was assumed to be one. The extraction ratio (ER) was calculated by dividing the predicted hepatic clearance by species blood flow (Q), where Q is 90, 55, and 21.7 mL/min/kg for mouse, rat and human, respectively.
# Sequence of human GluN1/GluN2B NMDA receptors (Q13224 27-1484, other chains not shown): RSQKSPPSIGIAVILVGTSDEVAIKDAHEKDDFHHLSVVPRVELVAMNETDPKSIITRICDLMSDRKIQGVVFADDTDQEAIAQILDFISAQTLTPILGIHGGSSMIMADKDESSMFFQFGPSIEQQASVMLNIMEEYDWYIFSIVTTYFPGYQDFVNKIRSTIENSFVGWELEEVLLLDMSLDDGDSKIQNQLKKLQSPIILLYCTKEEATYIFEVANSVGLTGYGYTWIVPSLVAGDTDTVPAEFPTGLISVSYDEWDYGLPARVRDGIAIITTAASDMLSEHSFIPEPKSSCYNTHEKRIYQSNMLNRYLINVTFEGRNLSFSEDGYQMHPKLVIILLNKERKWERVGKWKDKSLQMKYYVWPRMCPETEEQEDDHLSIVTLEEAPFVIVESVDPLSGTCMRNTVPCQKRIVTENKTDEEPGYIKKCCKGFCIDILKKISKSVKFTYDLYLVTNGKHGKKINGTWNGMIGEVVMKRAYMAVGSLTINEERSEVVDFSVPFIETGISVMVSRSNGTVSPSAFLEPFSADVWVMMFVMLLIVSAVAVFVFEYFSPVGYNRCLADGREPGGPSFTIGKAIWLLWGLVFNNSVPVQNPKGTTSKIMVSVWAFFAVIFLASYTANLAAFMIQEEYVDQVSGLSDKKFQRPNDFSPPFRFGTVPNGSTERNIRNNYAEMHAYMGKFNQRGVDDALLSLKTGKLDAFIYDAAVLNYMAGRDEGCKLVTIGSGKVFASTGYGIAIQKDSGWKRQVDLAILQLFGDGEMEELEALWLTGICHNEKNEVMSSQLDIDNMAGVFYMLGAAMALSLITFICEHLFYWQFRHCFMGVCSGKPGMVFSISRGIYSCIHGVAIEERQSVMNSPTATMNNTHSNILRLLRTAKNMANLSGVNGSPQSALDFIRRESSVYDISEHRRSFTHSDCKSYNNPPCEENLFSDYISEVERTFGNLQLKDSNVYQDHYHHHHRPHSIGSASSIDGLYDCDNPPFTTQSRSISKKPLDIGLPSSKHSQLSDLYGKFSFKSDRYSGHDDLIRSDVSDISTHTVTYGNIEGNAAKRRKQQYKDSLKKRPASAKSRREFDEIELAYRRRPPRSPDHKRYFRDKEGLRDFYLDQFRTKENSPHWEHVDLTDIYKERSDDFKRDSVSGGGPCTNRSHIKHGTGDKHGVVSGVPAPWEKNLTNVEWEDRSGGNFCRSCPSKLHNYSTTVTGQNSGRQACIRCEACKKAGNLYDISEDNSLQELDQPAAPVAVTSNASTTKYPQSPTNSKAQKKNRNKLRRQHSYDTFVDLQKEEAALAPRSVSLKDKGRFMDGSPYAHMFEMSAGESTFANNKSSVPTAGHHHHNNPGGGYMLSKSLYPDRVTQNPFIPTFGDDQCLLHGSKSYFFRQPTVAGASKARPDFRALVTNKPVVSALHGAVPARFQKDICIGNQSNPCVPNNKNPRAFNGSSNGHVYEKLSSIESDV
SMILES,IC50 [1] [nM],Extraction Ratio @ 1 μM [2]
"CC(c1cncc(-c2ccc(F)c(C(F)F)c2)c1)N1CCOC1=O (racemic) [Example 60, (R/S)-3-[1-[5-[3-(difluoromethyl)-4-fluoro-phenyl]-3-pyridyl]ethyl]oxazolidin-2-one]",785,0.42
"C[C@H]1CN(Cc2cncc(-c3ccc(F)c(C(F)F)c3)c2)C(=O)O1 (single isomer, unassigned) [Example 27, (S*)-3-[[5-[3-(Difluoromethyl)-4-fluoro-phenyl]-3-pyridyl]methyl]-5-methyl-oxazolidin-2-one]",14,0.42
"O=C1OCCN1Cc1cncc(-c2ccc(F)c(C(F)F)c2)c1 [Example 22, 3-[[5-[3-(Difluoromethyl)-4-fluoro-phenyl]-3-pyridyl]methyl]oxazolidin-2-one]",11,0.63
"O=C1OCCCN1Cc1cncc(-c2ccc(F)c(C(F)F)c2)c1 [Example 38, 3-[[5-[3-(Difluoromethyl)-4-fluoro-phenyl]-3-pyridyl]methyl]-1,3-oxazinan-2-one]",9,<0.298
"O=C1OCCCN1Cc1cncc(-c2ccc(Cl)c(OC(F)F)c2)c1 [Example 53, 3-[[5-[4-chloro-3-(difluoromethoxy)phenyl]-3-pyridyl]methyl]-1,3-oxazinan-2-one]",,0.61
"Cc1ncc(-c2ccc(F)c(C(F)F)c2)cc1CN1CCOC1=O [Example 90, 3-[[5-[3-(Difluoromethyl)-4-fluoro-phenyl]-2-methyl-3-pyridyl]methyl] oxazolidin-2-one]",13,0.60

# The remaining compounds from weak to strong by IC50 [1], led by results:
IC50 [1] [nM],Extraction Ratio @ 1 μM [2],SMILES
27,0.55,"Cc1ncc(-c2ccc(F)c(C(F)F)c2)cc1CN1CCCOC1=O [Example 97, 3-[[5-[3-(Difluoromethyl)-4-fluoro-phenyl]-2-methyl-3-pyridyl]methyl]-1,3-oxazinan-2-one]"
13,0.61,"[2H]C([2H])(c1cncc(-c2ccc(F)c(C(F)F)c2)c1)N1CCOC1=O [Example 54, 3-[Dideuterio-[5-[3-(difluoromethyl)-4-fluoro-phenyl]-3-pyridyl]methyl]oxazolidin-2-one]"
10,0.49,"O=C1OCCCN1Cc1cncc(-c2ccc(F)c(OC(F)F)c2)c1 [Example 1, 3-[[5-[3-(Difluoromethoxy)-4-fluoro-phenyl]-3-pyridyl]methyl]-1,3-oxazinan-2-one]"
